US7173004B2, “Macrocyclic isoquinoline peptide inhibitors of hepatitis C virus” (Bristol-Myers Squibb Company, priority 2003, dated 2007)
pEC50: −log10 of the molar value.

Each compound was assayed on HCV replicon (HCV 1b-377-neo replicon cells, Huh7) (assay: HCV replicon cell-based FRET assay). Details: Hepatitis C virus, Huh-7.
Method: HCV Replion assays were utilized in the present invention, and were prepared, conducted and validated as follows:
An HCV replicon whole cell system was established as described by Lohmann V, Korner F, Koch J, Herian U, Theilmann L, Bartenschlager R., Science 285(5424): 110–3 (1999). This system enabled us to evaluate the effects of our HCV Protease compounds on HCV RNA replication. Briefly, using the HCV strain 1B sequence described in the Lohmann paper (Assession number: AJ238799), an HCV cDNA was synthesized by Operon Technologies, Inc. (Alameda, Calif.), and the full-length replicon was then assembled in plasmid pGem9zf(+) (Promega, Madison, Wis.) using standard molecular biology techniques. The replicon consists of (i) the HCV 5′ UTR fused to the first 12 amino acids of the capsid protein, (ii) the neomycin phosphotransferase gene (neo), (iii) the IRES from encephalomyocarditis virus (EMCV), and (iv) HCV NS3 to NS5B genes and the HCV 3′ UTR. Plasmid DNAs were linearized with ScaI and RNA transcripts were synthesized in vitro using the T7 MegaScript transcription kit (Ambion, Austin, Tex.) according to manufacturer's directions. To generate cell lines, 4×10^6 Huh-7 cells (kindly provided by R. Bartenschlager and available from Health Science Research Resources Bank, Japan Health Sciences Foundation) were electroporated (GenePulser System, Bio-Rad) with 10 microgram(“μg”) of RNA transcript and plated into 100-mm dishes. After 24 h, selective media containing 1.0 milligrams/milliliter (“mg/ml”) G418 was added and media was changed every 3 to 5 days. Approximately 4 weeks after electroporation, small colonies were visible which were isolated and expanded for further analysis. These cell lines were maintained at 37° C., 5% CO2, 100% relative humidity in DMEM (Cat# 11965-084) Gibco-BRL, Rockville, Md., with 10% heat inactivated calf serum (Sigma), 10 ml of 100× penicillin/streptomycin (Cat# 15140-122) Gibco-BRL, Rockville, Md., Geneticin (Cat# 10131-027) Gibco-BRL, Rockville, Md. at 1 mg/ml. One of the cell lines (deposited as ATCC Accession No. PTA-4583 in the American Type Culture Collection) which had approximately 3,000 copies of HCV replicon RNA/cell was used for development of the assay (HCV 1b-377-neo replicon cells).
Huh7 cells, constitutively expressing the HCV replicon, were grown in Dulbecco's Modified Eagle Media (DMEM) containing 10% Fetal calf serum (FCS) and 1 mg/ml G418 (Gibco-BRL). Cells were seeded the night before (1.5×10^4 cells/well) in 96-well tissue-culture sterile plates. Compound and no compound controls were prepared in DMEM containing 4% FCS, 1:100 Penicillin/Streptomysin, 1:100 L-glutamine and 5% DMSO in the dilution plate (0.5% DMSO final concentration in the assay). Compound/DMSO mixes were added to the cells and incubated for 4 days at 37° C. After 4 days, cells were first assessed for cytotoxicity using alamar Blue (Trek Diagnotstic Systems) for a CC50 reading. The toxicity of compound (CC50) was determined by adding 1/10th volume of alamar Blue to the media incubating the cells. After 4 hr, the fluorescence signal from each well was read, with an excitation wavelength at 530 nm and an emission wavelength of 580 nm, using the Cytofluor Series 4000 (Perspective Biosystems). Plates were then rinsed thoroughly with Phosphate-Buffered Saline (PBS) (3 times 150 μl). The cells were lysed with 25 μl of a lysis assay reagent containing an HCV protease substrate (5× cell Luciferase cell culture lysis reagent (Promega #E153A) diluted to 1× with distilled water, NaCl added to 150 mM final, the FRET peptide diluted to 10 μM final from a 2 mM stock in 100% DMSO). The HCV protease substrate (FRET peptide; AnaSpec, Inc. cat #22991, described by Taliani et al. in Anal. Biochem. 240(2):60–67 (1996)) contains a fluorescence donor, EDANS, near one end of the peptide and an acceptor, DABCYL, near the other end. […]
COc1ccc2c(OC3CC4C(=O)NC5(C(=O)NS(=O)(=O)C6(C)CC6)CC5C=CCCCOC(C)C(NC(=O)OC(C)C)C(=O)N4C3)nccc2c1 (stereo not drawn) [Compound 68] showed a pEC50 of 6.30 to 7.30. In the case of CC(C)(C)OC(=O)N[C@H]1CCCCC/C=C\[C@@H]2C[C@@]2(C(=O)NS(=O)(=O)C2CC2)NC(=O)[C@@H]2C[C@@H](Oc3nccc4ccccc34)CN2C1=O [Compound 4, [4-Cyclopropanesulfonylaminocarbonyl-18-(isoquinolin-1-yloxy)-2,15-dioxo-3,16-diaza-tricyclo[14.3.0.0^4,6]nonadec-7-en-14-yl]-carbamic acid tert-butyl ester], the pEC50 was over 7.30. CCC1(S(=O)(=O)NC(=O)C23CC2C=CCCCOC(C)C(NC(=O)NC2CCCC2)C(=O)N2CC(Oc4nccc5cc(OC)ccc45)CC2C(=O)N3)CC1 (stereo not drawn) [Compound 73] showed a pEC50 of 6.30 to 7.30. COc1ccc2c(OC3CC4C(=O)NC5(C(=O)NS(=O)(=O)C6CC6)CC5C=CCOCCCC(NC(=O)OC(C)C)C(=O)N4C3)nccc2c1 (stereo not drawn) [Compound 31] showed a pEC50 of over 7.30. CCC1(S(=O)(=O)NC(=O)C23CC2C=CCCCSCC(NC(=O)OCC(C)(C)C)C(=O)N2CC(Oc4nccc5cc(OC)ccc45)CC2C(=O)N3)CC1 (stereo not drawn) [Compound 45] gave a pEC50 of over 7.30. Work on CC1(OC(=O)NC2CCCCCC=CC3CC3(C(=O)NS(=O)(=O)C3CC3)NC(=O)C3CC(Oc4nccc5ccccc45)CN3C2=O)CCCC1 (stereo not drawn) [Compound 50] yielded a pEC50 of over 7.30. CC(C)(C)OC(=O)N[C@H]1CCCCCCC[C@@H]2C[C@@]2(C(=O)NS(=O)(=O)C2CC2)NC(=O)[C@@H]2C[C@@H](Oc3nccc4ccccc34)CN2C1=O [Compound 10, [4-Cyclopropanesulfonylaminocarbonyl-18-(isoquinolin-1-yloxy)-2,15-dioxo-3,16-diaza-tricyclo[14.3.0.0^4,6]nonadec-14-yl]-carbamic acid tert-butyl ester] gave a pEC50 of over 7.30. In the case of COc1ccc2c(OC3CC4C(=O)NC5(C(=O)O)CC5C=CCOCCCC(NC(=O)OC(C)(C)C)C(=O)N4C3)nccc2c1 (stereo not drawn) [Compound 27, 14-tert-Butoxycarbonylamino-18-(6-methoxy-isoquinolin-1-yloxy)-2,15-dioxo-10-oxa-3,16-diaza-tricyclo[14.3.0.0^4,6]nonadec-7-ene-4-carboxylic acid], the pEC50 was 5.30 to 6.30. In the case of CS(=O)(=O)NC1CCCCCC=CC2CC2(C(=O)NS(=O)(=O)C2CC2)NC(=O)C2CC(Oc3nccc4ccccc34)CN2C1=O (stereo not drawn) [Compound 25], the pEC50 was 5.30 to 6.30. COc1ccc2c(OC3CC4C(=O)NC5(C(=O)NS(=O)(=O)C6CC6)CC5C=CCOCCCC(NC(=O)NC5CCCC5)C(=O)N4C3)nccc2c1 (stereo not drawn) [Compound 33] was tested, and the pEC50 was over 7.30. COc1ccc2c(OC3CC4C(=O)NC5(C(=O)O)CC5C=CCCCSCC(NC(=O)OC(C)(C)C)C(=O)N4C3)nccc2c1 (stereo not drawn) [Compound 18A, 14-tert-Butoxycarbonylamino-18-(6-methoxy-isoquinolin-1-yloxy)-2,15-dioxo-12-thia-3,16-diaza-tricyclo[14.3.0.0^4,6]nonadec-7-ene-4-carboxylic acid] gave a pEC50 of 5.30 to 6.30. Compound COc1ccc2c(OC3CC4C(=O)NC5(C(=O)NS(=O)(=O)C6CC6)CC5C=CCCCOC(C)C(NC(=O)OC(C)(C)C)C(=O)N4C3)nccc2c1 (stereo not drawn) [Compound 62] has a pEC50 of 6.30 to 7.30. COc1c(NC2CCCCCC=CC3CC3(C(=O)NS(=O)(=O)C3CC3)NC(=O)C3CC(Oc4nccc5ccccc45)CN3C2=O)c(=O)c1=O (stereo not drawn) [Compound 21] gave a pEC50 of 6.30 to 7.30. CCC1(S(=O)(=O)NC(=O)C23CC2C=CCCCSCC(NC(=O)NC2CCCC2)C(=O)N2CC(Oc4nccc5cc(OC)ccc45)CC2C(=O)N3)CC1 (stereo not drawn) [Compound 46] gave a pEC50 of over 7.30. Work on CC(C)(C)OC(=O)N[C@H]1CCCCC/C=C\[C@@H]2C[C@@]2(C(=O)NS(=O)(=O)C2(Cc3ccccc3)CC2)NC(=O)[C@@H]2C[C@@H](Oc3nccc4ccccc34)CN2C1=O [Compound 5, [4-(1-Benzyl-cyclopropanesulfonylaminocarbonyl)-18-(isoquinolin-1-yloxy)-2,15-dioxo-3,16-diaza-tricyclo[14.3.0.0^4,6]nonadec-7-en-14-yl]-carbamic acid tert-butyl ester] yielded a pEC50 of 6.30 to 7.30.
